Tested on: HCT-116
Test: Induction of apoptosis in human HCT-116 cells assessed as apoptotic rate at medium dose measured after 48 hrs by annexin V-FITC/7-AAD based flow cytometry analysis relative to control
Assay type: functional

With N#Cc1cccc(CN2CCC=C(C(=O)NCc3ccc(C(F)(F)F)cc3)C2)c1 the Activity was 46%.
